From ChEMBL document CHEMBL1131972, “Investigation of the 4-O-alkylamine substituent of non-peptide quinolone GnRH receptor antagonists” (Bioorg Med Chem Lett, 1999)

Experiments:
[1] = biological target: T1, Gonadotropin-releasing hormone receptor (Rattus norvegicus, UniProt P30969); test: Binding affinity for Gonadotropin-releasing hormone receptor in rat pituitary membrane at 10 buserelin as radioligand; type: cell membranes
T1 sequence (P30969 whole entry): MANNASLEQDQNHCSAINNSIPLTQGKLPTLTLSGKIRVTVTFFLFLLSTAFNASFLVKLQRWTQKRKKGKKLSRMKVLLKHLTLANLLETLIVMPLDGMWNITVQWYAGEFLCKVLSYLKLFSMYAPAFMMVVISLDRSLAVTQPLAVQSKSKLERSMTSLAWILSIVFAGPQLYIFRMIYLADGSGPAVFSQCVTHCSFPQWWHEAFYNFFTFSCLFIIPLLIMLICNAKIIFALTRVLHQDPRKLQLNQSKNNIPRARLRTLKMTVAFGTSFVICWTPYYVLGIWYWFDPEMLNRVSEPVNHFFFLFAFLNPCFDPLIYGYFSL

[2] = biological target: T1, Gonadotropin-releasing hormone receptor; test: Binding affinity for Gonadotropin-releasing hormone receptor in rat pituitary membrane at 10 buserelin as radioligand; NA is not active; type: cell membranes

Row | IC50 [1] | IC50 [2] | SMILES
1 | 1420 nM |  | Cc1cc(C)cc(-c2c(O)nc3cc(Cl)c([N+](=O)[O-])cc3c2OCCCC2CCCCN2)c1 (stereo unspecified)
2 | 10 nM |  | Cc1cc(C)cc(-c2c(O)nc3cc(Cl)c([N+](=O)[O-])cc3c2OCC[C@@H]2CCCCN2)c1
3 | 85 nM |  | Cc1cc(C)cc(-c2c(O)nc3cc(Cl)c([N+](=O)[O-])cc3c2OCC[C@H]2CCCCN2C)c1
4 | 150 nM |  | Cc1cc(C)cc(-c2c(O)nc3cc(Cl)c([N+](=O)[O-])cc3c2OCC[C@H]2CCCCN2)c1
5 | 15 nM |  | Cc1cc(C)cc(-c2c(O)nc3cc(Cl)c([N+](=O)[O-])cc3c2OCC[C@@H]2CCCN2)c1
6 |  | Not Active | Cc1cc(C)cc(-c2c(O)nc3cc(Cl)c([N+](=O)[O-])cc3c2OCCc2ccccn2)c1
7 | 100 nM |  | Cc1cc(C)cc(-c2c(O)nc3cc(Cl)c([N+](=O)[O-])cc3c2OCC[C@H]2CCCN2)c1
8 | 36 nM |  | Cc1cc(C)cc(-c2c(OCCC3CCCCCN3)c3cc([N+](=O)[O-])c(Cl)cc3[nH]c2=O)c1 (stereo unspecified)
9 | 20 nM |  | Cc1cc(C)cc(-c2c(O)nc3cc(Cl)c([N+](=O)[O-])cc3c2OCC[C@@H]2CCCCN2C)c1
10 | 36 nM |  | Cc1cc(C)cc(-c2c(OCC3CCCNC3)c3cc([N+](=O)[O-])c(Cl)cc3[nH]c2=O)c1 (stereo unspecified)
11 | 25 nM |  | Cc1cc(C)cc(-c2c(O)nc3cc(Cl)c([N+](=O)[O-])cc3c2OCC[C@@H]2CCN2)c1
